Assay results taken from ChEMBL document CHEMBL1201862, “PubChem BioAssay data set” (2004).
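Tested at 5 concentrations; 48 h exposure; 96-well plates; endpoints linearly interpolated, else capped at highest concentration. GI50 = concentration required for 50% inhibition of growth.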 Calls of active or inactive are those of the source. No stated cut-off is given here; in the data, active = GI50 up to about 1.1 µM and inactive = higher.

Columns and labels:
Test in all cases: DTP human tumour cell line panel, 48 h
PC-3 = system: PC-3
HL-60 = system: HL-60
HOP-62 = system: HOP-62
786-0 = system: 786-0
KM12 = system: KM12
MDA-MB-435 = system: MDA-MB-435
NCI-H460 = system: NCI-H460
HCT-15 = system: HCT-15
CCRF-CEM = system: CCRF-CEM
SK-MEL-28 = system: SK-MEL-28
Hs-578T = system: Hs-578T
NCI/ADR-RES = system: NCI/ADR-RES
COLO 205 = system: COLO 205
HCC 2998 = system: HCC 2998
DU-145 = system: DU-145
SK-MEL-2 = system: SK-MEL-2
OVCAR-8 = system: OVCAR-8
A498 = system: A498
IGROV-1 = system: IGROV-1

## O=C(O)[C@H]1NC[C@@H]2ON=C(Br)[C@@H]21
PC-3
  GI50: > 100 µM (inactive)
HL-60
  GI50: > 100 µM (inactive)
HOP-62
  GI50: > 100 µM (inactive)
786-0
  GI50: > 100 µM (inactive)
KM12
  GI50: > 100 µM (inactive)
MDA-MB-435
  GI50: > 100 µM (inactive)
NCI-H460
  GI50: > 100 µM (inactive)
HCT-15
  GI50: > 100 µM
CCRF-CEM
  GI50: > 100 µM (inactive)
SK-MEL-28
  GI50: > 100 µM (inactive)
Hs-578T
  GI50: > 100 µM (inactive)
NCI/ADR-RES
  GI50: > 100 µM (inactive)
COLO 205
  GI50: > 100 µM (inactive)
HCC 2998
  GI50: > 100 µM (inactive)
DU-145
  GI50: > 100 µM (inactive)
SK-MEL-2
  GI50: > 100 µM (inactive)
OVCAR-8
  GI50: > 100 µM (inactive)
A498
  GI50: > 100 µM (inactive)
IGROV-1
  GI50: > 100 µM (inactive)

## COc1cc(C2c3cc4c(cc3OC(O)C2C)OCO4)cc(OC)c1OC (stereo not given)
PC-3
  GI50: 0.228 µM (active)
HL-60
  GI50: 0.172 µM (active)
HOP-62
  GI50: 0.306 µM (active)
786-0
  GI50: 0.507 µM (active)
KM12
  GI50: 0.347 µM (active)
MDA-MB-435
  GI50: 0.0377 µM (active)
NCI-H460
  GI50: 0.355 µM (active)
HCT-15
  GI50: 0.403 µM
CCRF-CEM
  GI50: 0.229 µM (active)
SK-MEL-28
  GI50: 0.863 µM (active)
Hs-578T
  GI50: 0.31 µM (active)
NCI/ADR-RES
  GI50: 0.214 µM (active)
COLO 205
  GI50: 0.315 µM (active)
HCC 2998
  GI50: 0.61 µM (active)
DU-145
  GI50: 0.414 µM (active)
SK-MEL-2
  GI50: 0.486 µM (active)
OVCAR-8
  GI50: 0.245 µM (active)
A498
  GI50: 0.483 µM (active)
IGROV-1
  GI50: 0.553 µM (active)

## O=C(CCCCCC(=O)N1CC(CCl)c2ccc([N+](=O)[O-])cc21)N1CC(CCl)c2ccc([N+](=O)[O-])cc21 (stereo not given)
PC-3
  GI50: > 100 µM (inactive)
HL-60
  GI50: 75.3 µM (inactive)
HOP-62
  GI50: 95.7 µM (inactive)
786-0
  GI50: > 100 µM (inactive)
KM12
  GI50: > 100 µM (inactive)
MDA-MB-435
  GI50: > 100 µM (inactive)
NCI-H460
  GI50: 34 µM (inactive)
HCT-15
  GI50: > 100 µM
CCRF-CEM
  GI50: 91.4 µM (inactive)
Hs-578T
  GI50: > 100 µM (inactive)
NCI/ADR-RES
  GI50: > 100 µM (inactive)
COLO 205
  GI50: > 100 µM (inactive)
HCC 2998
  GI50: 23.7 µM (inactive)
DU-145
  GI50: > 100 µM (inactive)
SK-MEL-2
  GI50: > 100 µM (inactive)
OVCAR-8
  GI50: > 100 µM (inactive)
A498
  GI50: 87.1 µM (inactive)
IGROV-1
  GI50: > 100 µM (inactive)

## O=c1[nH]/c(=C/c2ccc(OCc3ccccc3)cn2)c(=O)[nH]/c1=C/c1ccc(F)cc1
PC-3
  GI50: 0.632 µM (active)
HL-60
  GI50: 0.217 µM (active)
HOP-62
  GI50: 0.239 µM (active)
786-0
  GI50: 0.447 µM (active)
KM12
  GI50: 0.344 µM (active)
MDA-MB-435
  GI50: 0.0902 µM (active)
NCI-H460
  GI50: 0.541 µM (active)
HCT-15
  GI50: 0.157 µM
CCRF-CEM
  GI50: 0.458 µM (active)
Hs-578T
  GI50: 0.542 µM (active)
NCI/ADR-RES
  GI50: 0.614 µM (active)
COLO 205
  GI50: 0.55 µM (active)
HCC 2998
  GI50: 1.42 µM (inactive)
DU-145
  GI50: 0.931 µM (active)
SK-MEL-2
  GI50: 7.35 µM (inactive)
OVCAR-8
  GI50: 3.74 µM (inactive)
A498
  GI50: 0.834 µM (active)
IGROV-1
  GI50: 0.335 µM (active)

## Oc1ccc(Nc2nc(Cl)c3nc[nH]c3n2)cc1
PC-3
  GI50: > 100 µM (inactive)
HL-60
  GI50: 34.5 µM (inactive)
HOP-62
  GI50: > 100 µM (inactive)
786-0
  GI50: > 100 µM (inactive)
KM12
  GI50: > 100 µM (inactive)
MDA-MB-435
  GI50: > 100 µM (inactive)
NCI-H460
  GI50: > 100 µM (inactive)
HCT-15
  GI50: > 100 µM
CCRF-CEM
  GI50: 37.9 µM (inactive)
Hs-578T
  GI50: > 100 µM (inactive)
NCI/ADR-RES
  GI50: > 100 µM (inactive)
COLO 205
  GI50: > 100 µM (inactive)
HCC 2998
  GI50: > 100 µM (inactive)
DU-145
  GI50: > 100 µM (inactive)
SK-MEL-2
  GI50: 27.2 µM (inactive)
OVCAR-8
  GI50: > 100 µM (inactive)
A498
  GI50: > 100 µM (inactive)
IGROV-1
  GI50: 67.6 µM (inactive)

## O=C1CC(C(CC(=O)c2ccccc2)c2ccccc2)C(=O)c2ccccc2N1 (stereo not given)
PC-3
  GI50: 25.5 µM (inactive)
HL-60
  GI50: 31.5 µM (inactive)
HOP-62
  GI50: 51.1 µM (inactive)
786-0
  GI50: > 100 µM (inactive)
KM12
  GI50: 49.7 µM (inactive)
MDA-MB-435
  GI50: 50.1 µM (inactive)
NCI-H460
  GI50: 33.3 µM (inactive)
HCT-15
  GI50: 33.8 µM
CCRF-CEM
  GI50: 25.9 µM (inactive)
Hs-578T
  GI50: 43.5 µM (inactive)
NCI/ADR-RES
  GI50: 15.1 µM (inactive)
COLO 205
  GI50: 54.8 µM (inactive)
HCC 2998
  GI50: 48.6 µM (inactive)
DU-145
  GI50: 48.6 µM (inactive)
SK-MEL-2
  GI50: 16 µM (inactive)
OVCAR-8
  GI50: 27.8 µM (inactive)
A498
  GI50: > 100 µM (inactive)
IGROV-1
  GI50: > 100 µM (inactive)
